# Reference: the supplement of paper PMC10307832
# What was measured:
# Assay in all cases: relative viability (nuclei count vs DMSO), 5 days (fraction); higher = more cells survive
# [1] = compound: C(C(=O)C(=O)O)Br [Bromopyruvate] + Nc1ncn([C@H]2C[C@H](O)[C@@H](CO)O2)c(=O)n1 [Decitabine] (partner 2 µM)
# In short: (§1)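 A single step with final 0.05% Triton X-100, 1% formaldehyde and 1 ug/ml Hoechst fixed the cells and stained nuclei 5 days after treatment. Lung cancer cell lines in 1536-well plates had been treated by pin tool the day after seeding with one drug alone or a fixed anchor-drug dose plus five library-drug doses (not always all listed) in √10 steps, and nuclei were counted on 4× images. Relative viability is the ratio of nuclei in treated wells to nuclei in vehicle wells, taken as the median of duplicate plates.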
# [2] = compound: C(C(=O)C(=O)O)Br [Bromopyruvate] + CC(=O)Nc1cccc(-n2c(=O)n(C3CC3)c(=O)c3c(Nc4ccc(I)cc4F)n(C)c(=O)c(C)c32)c1 [Trametinib] (partner 0.02 µM)
# In short: as §1
# [3] = compound: C(C(=O)C(=O)O)Br [Bromopyruvate] + N=C(N)NC(=N)NCCc1ccccc1 [Phenformin] (partner 250 µM)
# In short: as §1
# [4] = compound: CC(O)(CS(=O)(=O)c1ccc(F)cc1)C(=O)Nc1ccc(C#N)c(C(F)(F)F)c1 [Bicalutamide] + CC1(C)CCC(c2ccc(Cl)cc2)=C(CN2CCN(c3ccc(C(=O)NS(=O)(=O)c4ccc(N[C@H](CCN5CCOCC5)CSc5ccccc5)c(S(=O)(=O)C(F)(F)F)c4)cc3)CC2)C1 [Navitoclax] (partner 0.5 µM)
# In short: as §1
Cell Line,relative viability ([1]; first compound 1 µM),relative viability ([1]; first compound 3.162 µM),relative viability ([1]; first compound 10 µM),relative viability ([1]; first compound 31.62 µM),relative viability ([1]; first compound 100 µM),relative viability ([2]; first compound 1 µM),relative viability ([2]; first compound 3.162 µM),relative viability ([2]; first compound 10 µM),relative viability ([2]; first compound 31.62 µM),relative viability ([2]; first compound 100 µM),relative viability ([3]; first compound 1 µM),relative viability ([3]; first compound 3.162 µM),relative viability ([3]; first compound 10 µM),relative viability ([3]; first compound 31.62 µM),relative viability ([3]; first compound 100 µM),relative viability ([4]; first compound 0.08 µM),relative viability ([4]; first compound 0.253 µM),relative viability ([4]; first compound 0.8 µM),relative viability ([4]; first compound 2.53 µM)
NCI-H2170,0.471,0.464,0.424,0.44,0.438,0.918,0.923,0.99,0.902,0.925,0.414,0.487,0.435,0.41,0.379,0.553,0.506,0.661,0.591
NCI-H2405,0.696,0.732,0.854,–,0.665,0.735,0.739,0.764,–,0.684,0.403,0.432,0.421,0.354,0.388,0.948,0.816,0.987,0.925
NCI-H2009,0.352,0.42,0.336,0.349,0.261,0.277,0.328,0.246,0.26,0.245,0.476,0.493,0.507,0.475,0.344,1.29,1.24,1.14,1.08
NCI-H441,0.324,0.238,0.243,0.22,0.242,0.47,0.529,0.506,0.526,0.458,0.852,0.945,0.796,0.743,0.838,0.551,–,0.622,0.518
PC-14,0.226,0.229,0.204,0.262,0.201,0.8,0.717,0.953,0.718,0.753,0.754,0.737,0.776,0.546,0.516,0.948,0.944,1.02,1.08
HARA,0.624,0.572,–,0.545,0.558,0.709,0.814,–,0.633,1,0.496,0.431,0.503,0.483,0.476,1.15,1.15,1.11,1.13
NCI-H2126,0.625,0.603,0.543,0.582,0.564,0.547,0.579,0.559,0.591,0.57,0.556,0.534,0.518,0.54,0.513,0.929,0.806,0.873,0.847
NCI-H1437,0.672,0.588,0.524,0.583,0.577,0.552,0.529,0.556,0.506,0.484,0.339,0.293,0.398,0.281,0.288,1.1,1.17,1.14,1.11
NCI-H1792,0.57,0.614,0.45,0.498,0.555,0.392,0.448,0.382,0.364,0.435,0.227,0.345,–,0.386,0.252,0.5,0.619,0.77,0.674
